In patent US8524745B2 (Allergan, Inc., priority 2011, dated 2013):

Target: T1, CCR2 (Homo sapiens, UniProt P41597)
T1 construct: expressed in transfected cells
Test: CCR2 calcium activity assay on FLIPR Tetra in HEK-Gqi5 cells stably expressing CCR2
Type: cell-based
Method: HEK-Gqi5 cells stably expressing CCR2 were cultured in (DMEM high glucose, 10% FBS, 1% PSA, 400 μg/ml geneticin and 50 μg/ml hygromycin. Appropriate positive control chemokines (MCP-1, MIP1A or RANTES) was used as the positive control agonist for screening compound-induced calcium activity assayed on the FLIPR^Tetra. The drug plates were prepared in 384-well microplates using the EP3 and the MuItiPROBE robotic liquid handling systems. Compounds were synthesized and tested for CCR2 activity.

T1 sequence (P41597 whole entry, species assumed): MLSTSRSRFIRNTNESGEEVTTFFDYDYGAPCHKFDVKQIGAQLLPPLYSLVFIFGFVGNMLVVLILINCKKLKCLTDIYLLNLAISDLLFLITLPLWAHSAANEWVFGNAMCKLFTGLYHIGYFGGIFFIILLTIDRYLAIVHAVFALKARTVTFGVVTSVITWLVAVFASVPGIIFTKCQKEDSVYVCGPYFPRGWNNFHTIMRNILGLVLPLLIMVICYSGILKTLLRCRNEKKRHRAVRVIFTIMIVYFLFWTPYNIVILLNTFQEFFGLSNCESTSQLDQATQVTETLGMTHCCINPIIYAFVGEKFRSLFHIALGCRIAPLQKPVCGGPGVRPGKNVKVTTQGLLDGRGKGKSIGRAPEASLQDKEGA

| SMILES | CCR2 % ANTAG [%] | IC50 [nM] |
| --- | --- | --- |
| CN(C)c1ccc(NS(=O)(=O)c2cccs2)c(NS(=O)(=O)c2ccc3c(c2)c(=O)sn3C)c1 | 35 | 551 |
| Cn1sc(=O)c2cc(S(=O)(=O)N[C@@H]3CCCC[C@H]3NS(=O)(=O)c3cccs3)ccc21 (relative stereo) [rel-1-methyl-3-oxo-N-{(1R,2R)-2-[(2-thienylsulfonyl)amino]cyclohexyl}-1,3-dihydro-2,1-benzisothiazole-5-sulfonamide] | 79 | 2370 |
| Cn1sc(=O)c2cc(S(=O)(=O)N[C@@H]3CCCC[C@@H]3NS(=O)(=O)c3cccs3)ccc21 (relative stereo) [rel-1-methyl-3-oxo-N-{(1R,2S)-2-[(2-thienylsulfonyl)amino]cyclohexyl}-1,3-dihydro-2,1-benzisothiazole-5-sulfonamide] | 65 | 2180 |
| Cn1sc(=O)c2cc(S(=O)(=O)N[C@@H]3CCCC[C@H]3NS(=O)(=O)c3ccc(Cl)c(C(F)(F)F)c3)ccc21 (relative stereo) [rel-N-[(1R,2R)-2-({[4-chloro-3-(trifluoromethyl)phenyl]sulfonyl}amino)cyclohexyl]-1-methyl-3-oxo-1,3-dihydro-2,1-benzisothiazole-5-sulfonamide] | 96 | 543 |
| Cn1sc(=O)c2cc(S(=O)(=O)N[C@@H]3CCCC[C@H]3NC(=O)c3cccs3)ccc21 (relative stereo) [rel-N-[(1R,2R)-2-{[(1-methyl-3-oxo-1,3-dihydro-2,1-benzisothiazol-5-yl)sulfonyl]amino}cyclohexyl]thiophene-2-carboxamide] | 46 | – |
| Cn1sc(=O)c2cc(S(=O)(=O)N[C@@H]3CCCC[C@@H]3NS(=O)(=O)c3ccc(Cl)c(C(F)(F)F)c3)ccc21 (relative stereo) [rel-N-[(1R,2S)-2-({[4-chloro-3-(trifluoromethyl)phenyl]sulfonyl}amino)cyclohexyl]-1-methyl-3-oxo-1,3-dihydro-2,1-benzisothiazole-5-sulfonamide] | 93 | 1240 |
| CC(C)n1sc(=O)c2cc(S(=O)(=O)Nc3cccc4c3OC(F)(F)C(F)(F)O4)ccc21 [1-isopropyl-3-oxo-N-(2,2,3,3-tetrafluoro-2,3-dihydro-1,4-benzodioxin-5-yl)-1,3-dihydro-2,1-benzisothiazole-5-sulfonamide] | 68 | 559 |
| CC(C)n1sc(=O)c2cc(S(=O)(=O)Nc3ccccc3NS(=O)(=O)c3cccs3)ccc21 [1-isopropyl-3-oxo-N-{2-[(2-thienylsulfonyl)amino]phenyl}-1,3-dihydro-2,1-benzisothiazole-5-sulfonamide] | 90 | 4320 |
| Cn1sc(=O)c2cc(S(=O)(=O)Nc3cc(Cl)c(Cl)cc3Cl)ccc21 [1-methyl-3-oxo-N-(2,4,5-trichlorophenyl)-1,3-dihydro-2,1-benzisothiazole-5-sulfonamide] | 79 | 1660 |
| Cn1sc(=O)c2cc(S(=O)(=O)Nc3ccccc3NC(=O)Nc3cccs3)ccc21 [1-methyl-3-oxo-N-(2-{[(2-thienylamino)carbonyl]amino}phenyl)-1,3-dihydro-2,1-benzisothiazole-5-sulfonamide] | 58 | 2530 |
| Cn1sc(=O)c2cc(S(=O)(=O)Nc3ccccc3CNS(=O)(=O)c3cccs3)ccc21 [1-methyl-3-oxo-N-(2-{[(2-thienylsulfonyl)amino]methyl}phenyl)-1,3-dihydro-2,1-benzisothiazole-5-sulfonamide] | 61 | – |
| Cn1sc(=O)c2cc(S(=O)(=O)NC3CCCN(S(=O)(=O)c4cccs4)C3)ccc21 (centres unmarked) [1-methyl-3-oxo-N-[1-(2-thienylsulfonyl)piperidin-3-yl]-1,3-dihydro-2,1-benzisothiazole-5-sulfonamide] | 39 | – |
| Cn1sc(=O)c2cc(S(=O)(=O)NC3CCN(S(=O)(=O)c4cccs4)C3)ccc21 (centres unmarked) [1-methyl-3-oxo-N-[1-(2-thienylsulfonyl)pyrrolidin-3-yl]-1,3-dihydro-2,1-benzisothiazole-5-sulfonamide] | 22 | – |
| Cn1sc(=O)c2cc(S(=O)(=O)Nc3ccccc3NS(=O)(=O)c3cccc(C(F)(F)F)c3)ccc21 [1-methyl-3-oxo-N-[2-({[3-(trifluoromethyl)phenyl]sulfonyl}amino)phenyl]-1,3-dihydro-2,1-benzisothiazole-5-sulfonamide] | 94 | 2210 |
| Cn1sc(=O)c2cc(S(=O)(=O)Nc3ccccc3NS(=O)(=O)c3ccc(C(F)(F)F)cc3)ccc21 [1-methyl-3-oxo-N-[2-({[4-(trifluoromethyl)phenyl]sulfonyl}amino)phenyl]-1,3-dihydro-2,1-benzisothiazole-5-sulfonamide] | 24 | 606 |
| Cn1sc(=O)c2cc(S(=O)(=O)Nc3cccc(OC(F)(F)F)c3)ccc21 [1-methyl-3-oxo-N-[3-(trifluoromethoxy)phenyl]-1,3-dihydro-2,1-benzisothiazole-5-sulfonamide] | 92 | 920 |

| SMILES | CCR2 % ANTAG [%] | IC50 [nM] |
| --- | --- | --- |
| Cn1sc(=O)c2cc(S(=O)(=O)Nc3cccc(C(F)(F)F)c3)ccc21 [1-methyl-3-oxo-N-[3-(trifluoromethyl)phenyl]-1,3-dihydro-2,1-benzisothiazole-5-sulfonamide] | 84 | – |
| Cn1sc(=O)c2cc(S(=O)(=O)Nc3cc(C(F)(F)F)ccc3NS(=O)(=O)c3cccs3)ccc21 [1-methyl-3-oxo-N-{2-[(2-thienylsulfonyl)amino]-5-(trifluoromethyl)phenyl}-1,3-dihydro-2,1-benzisothiazole-5-sulfonamide] | 103 | 701 |
| Cn1sc(=O)c2cc(S(=O)(=O)NCc3ccccc3NS(=O)(=O)c3cccs3)ccc21 [1-methyl-3-oxo-N-{2-[(2-thienylsulfonyl)amino]benzyl}-1,3-dihydro-2,1-benzisothiazole-5-sulfonamide] | 56 | 2180 |
| Cn1sc(=O)c2cc(S(=O)(=O)Nc3cccnc3NS(=O)(=O)c3cccs3)ccc21 [1-methyl-3-oxo-N-{2-[(2-thienylsulfonyl)amino]pyridin-3-yl}-1,3-dihydro-2,1-benzisothiazole-5-sulfonamide] | 83 | 1910 |
| Cn1sc(=O)c2cc(S(=O)(=O)Nc3ccccc3NS(=O)(=O)c3nnc[nH]3)ccc21 [1-methyl-3-oxo-N-{2-[(4H-1,2,4-triazol-3-ylsulfonyl)amino]phenyl}-1,3-dihydro-2,1-benzisothiazole-5-sulfonamide] | 90 | 1100 |
| Cn1sc(=O)c2cc(S(=O)(=O)Nc3ccccc3NS(=O)(=O)c3ccccc3)ccc21 [1-methyl-3-oxo-N-{2-[(phenylsulfonyl)amino]phenyl}-1,3-dihydro-2,1-benzisothiazole-5-sulfonamide] | 97 | 887 |
| Cn1sc(=O)c2cc(S(=O)(=O)Nc3ccccc3NS(=O)(=O)c3cccnc3)ccc21 [1-methyl-3-oxo-N-{2-[(pyridin-3-ylsulfonyl)amino]phenyl}-1,3-dihydro-2,1-benzisothiazole-5-sulfonamide] | 77 | – |
| Cn1sc(=O)c2cc(S(=O)(=O)Nc3cc4ccccc4cc3NS(=O)(=O)c3cccs3)ccc21 [1-methyl-3-oxo-N-{3-[(2-thienylsulfonyl)amino]-2-naphthyl}-1,3-dihydro-2,1-benzisothiazole-5-sulfonamide] | 96 | 2180 |
| Cn1sc(=O)c2cc(S(=O)(=O)Nc3cccc(NS(=O)(=O)c4cccs4)c3)ccc21 [1-methyl-3-oxo-N-{3-[(2-thienylsulfonyl)amino]phenyl}-1,3-dihydro-2,1-benzisothiazole-5-sulfonamide] | 23 | 2870 |
| Cn1sc(=O)c2cc(S(=O)(=O)Nc3cccc(SC(F)(F)F)c3)ccc21 [1-methyl-3-oxo-N-{3-[(trifluoromethyl)thio]phenyl}-1,3-dihydro-2,1-benzisothiazole-5-sulfonamide] | 85 | – |
| Cn1sc(=O)c2cc(S(=O)(=O)N3CCN(S(=O)(=O)c4cccs4)c4ccccc43)ccc21 [1-methyl-5-{[4-(2-thienylsulfonyl)-3,4-dihydroquinoxalin-1(2H)-yl]sulfonyl}-2,1-benzisothiazol-3(1H)-one] | 65 | 2080 |
| Cn1cnc(S(=O)(=O)Nc2ccccc2NS(=O)(=O)c2ccc3c(c2)c(=O)sn3C)c1 [1-methyl-N-(2-{[(1-methyl-1H-imidazol-4-yl)sulfonyl]amino}phenyl)-3-oxo-1,3-dihydro-2,1-benzisothiazole-5-sulfonamide] | 99 | 963 |
| Cn1ccc(S(=O)(=O)Nc2ccccc2NS(=O)(=O)c2ccc3c(c2)c(=O)sn3C)n1 [1-methyl-N-(2-{[(1-methyl-1H-pyrazol-3-yl)sulfonyl]amino}phenyl)-3-oxo-1,3-dihydro-2,1-benzisothiazole-5-sulfonamide] | 53 | 1680 |
| Cn1cc(S(=O)(=O)Nc2ccccc2NS(=O)(=O)c2ccc3c(c2)c(=O)sn3C)cn1 [1-methyl-N-(2-{[(1-methyl-1H-pyrazol-4-yl)sulfonyl]amino}phenyl)-3-oxo-1,3-dihydro-2,1-benzisothiazole-5-sulfonamide] | 60 | 2480 |
| CSc1cccc(NS(=O)(=O)c2ccc3c(c2)c(=O)sn3C)c1 [1-methyl-N-[3-(methylthio)phenyl]-3-oxo-1,3-dihydro-2,1-benzisothiazole-5-sulfonamide] | 86 | 1190 |
| Cn1sc(=O)c2cc(S(=O)(=O)NCC(C)(C)NS(=O)(=O)c3cccs3)ccc21 [1-methyl-N-{2-methyl-2-[(2-thienylsulfonyl)amino]propyl}-3-oxo-1,3-dihydro-2,1-benzisothiazole-5-sulfonamide] | 30 | – |
